Reference: patent US20170049725A9, “COMBINATION CANCER TREATMENT” (WISCONSIN ALUMNI RESEARCH FOUNDATION, priority 2014, published 2017)
Entries after “also recorded” stand apart in the source; their conditions may differ.

Key:
[1] = tested on: GILM2-mCherry mammary tumors; experiment: Orthotopic model of metastatic triple-negative breast cancer; type: in vivo, female NSG mice; details: NSG mice; TRAIL 10 mg/kg i.p. daily for two weeks; metformin 250 mg/mL in drinking water; alone or combined
Method: GILM2-mCherry cells (1×10^6) were injected intraductally into both 4th mammary glands of female NOD scid IL2 receptor γ chain knockout (NSG) mice. Mice were randomized into 4 groups (10 mice per group): vehicle, TRAIL alone (10 mg/kg i.p. daily for two weeks), metformin alone (250 mg/mL in drinking water), or the combination of these doses of metformin and TRAIL. Mice were treated with metformin beginning three weeks after tumor inoculation and throughout the study; TRAIL treatment was initiated 3.5 weeks after tumor cell inoculation.
To determine whether metformin augments the antitumor effects of TRAIL in an orthotopic model of metastatic triple-negative breast cancer, female NSG mice bearing established GILM2-mCherry mammary tumors were treated with vehicle, metformin alone, TRAIL alone or the combination of metformin and TRAIL.

[2] = tested on: metastatic breast cancer cells; details: cited from earlier work
GILM2 cells = experiment: Crystal violet cell survival assay; details: for cytotoxicity of agent alone (cell confluence of surviving cells): metformin 5 mM or agonist 1.5 μg/ml alone
Method: (§1) Top panel: representative images.
(§2) Crystal violet cell survival assay: Cells were seeded overnight on 6-well plates (3×10^5 cells/well). […] Surviving cells were fixed and stained with crystal violet as described in the art. The percentage of cell confluence was determined using NIH Image J software.

[3] = tested on: caspase-3 and PARP in GILM2 carcinoma cells; experiment: Immunoblotting of caspase activation (procaspase-3, PARP); type: cell-based, Human; details: metformin 5 mM 48 hours, then TRAIL 1.5 μg/ml 16 hours
[4] = tested on: untransformed MCF-10A-Vector cells; experiment: MTS cell viability assay; type: cell-based, Human; details: metformin 5 mM or agonist 1.5 μg/ml alone
Method: (§5) Untransformed MCF-10A-Vector and transformed MCF-10A-RasV12 cells were untreated or preincubated with metformin (MF, 5 mM) for 48 hours and then treated with TRAIL (1.5 μg/ml), mapatumumab (1.5 μg/ml), or lexatumumab (1.5 μg/ml) for an additional 24 hours. Cell viability was determined by MTS assay and expressed as fold-change relative to untreated controls. **P<0.01 or ***P<0.001 versus controls.
(§6) Cell viability assay: An MTS cell viability assay was performed as known in the art. Briefly, cells were plated overnight in 96-well plates (3×10^3 cells/well). Cells were then untreated or preincubated with metformin (5 mM) for 48 hours before adding lexatumumab (1.5 μg/ml), mapatumumab (1.5 μg/ml) or TRAIL (1.5 μg/ml). Cell viability was assessed 24 hours later. Cell viability was determined in triplicate wells and expressed as the fold-change relative to untreated controls.

[5] = tested on: transformed MCF-10A-RasV12 cells; experiment: MTS cell viability assay; type: cell-based, Human
Method: as §5, §6

[6] = tested on: caspase-3 and PARP in MCF-10A-Vector cells; experiment: Immunoblotting of caspase activation (procaspase-3, PARP); type: cell-based, Human; details: metformin 5 mM 48 hours, then TRAIL 1.5 μg/ml 16 hours
[7] = tested on: transformed MCF-10A-RasV12 cells; experiment: Crystal violet cell survival assay; type: cell-based, Human; details: metformin 5 mM 48 hours preincubation
Method: as §1, §2

[8] = tested on: untransformed MCF-10A-Vector cells; experiment: Crystal violet cell survival assay; type: cell-based, Human; details: metformin 5 mM
Method: as §1, §2

[9] = tested on: caspase-3 and PARP in DU145 carcinoma cells; experiment: Immunoblotting of caspase activation (procaspase-3, PARP); type: cell-based, Human; details: metformin 5 mM 48 hours, then TRAIL 1.5 μg/ml 16 hours
HT29 cells = experiment: Crystal violet cell survival assay; type: cell-based, Human
Text: as §1

DU145 cells = experiment: Crystal violet cell survival assay; type: cell-based, Human
Text: as §1

[10] = tested on: caspase-3 and PARP in MCF-10A-RasV12 cells; experiment: Immunoblotting of caspase activation (procaspase-3, PARP); type: cell-based, Human; details: metformin 5 mM 48 hours, then TRAIL 1.5 μg/ml 16 hours
[11] = tested on: XIAP in MDA-MB-231 breast cancer cells; experiment: Immunoblot of XIAP expression; type: cell-based; details: 5 mM metformin for 72 hours
Method: (§3) Immunoblot of XIAP expression in MDA-MB-231, GILM2 and MDA-MB-468 breast cancer cell lines grown in control media (V) or media containing 5 mM metformin (MF) for 72 hours.
(§4) Without being held to theory, it was postulated that metformin might sensitize cancer cells to TRAIL by downregulating XIAP.

[12] = tested on: XIAP in MDA-MB-468 breast cancer cells; experiment: Immunoblot of XIAP expression; type: cell-based; details: 5 mM metformin for 72 hours
Method: as §3, §4

[13] = tested on: GILM2 breast carcinoma cells; experiment: MTS cell viability assay
Method: (§7) Human GILM2, HT29 and DU145 carcinoma cells were untreated or preincubated with metformin (MF, 5 mM) for 48 hours and then treated with TRAIL (1.5 μg/ml), mapatumumab (1.5 μg/ml), or lexatumumab (1.5 μg/ml) for an additional 24 hours. Cell viability was determined by MTS assay and expressed as fold-change relative to untreated controls. *P<0.05, **P<0.01 or ***P<0.001 versus controls.
as §6

TRAIL-R1 on GILM2 cells = experiment: Cell surface expression of TRAIL receptors by flow cytometry; type: cell-based, Human; details: 5 mM metformin for 72 hours
Method: GILM2 cells were grown in control media or media containing 5 mM metformin for 72 hours, incubated with control IgG, TRAIL-R1 or TRAIL-R2 mAb, and analyzed by flow cytometry.
To determine whether metformin enhances the cell surface expression of TRAIL receptors in cancer cells, GILM2 cells were treated with metformin for 72 hours, and the cell surface expression of TRAIL-R2 and TRAIL-R1 was determined by flow cytometry.

[14] = tested on: XIAP in GILM2 breast cancer cells; experiment: Immunoblot of XIAP expression; type: cell-based, Human; details: 5 mM metformin for 72 hours
Method: as §3, §4

HT29 colon cancer cells = experiment: MTS cell viability assay
Method: as §7, §6

[15] = tested on: caspase-3 and PARP in HT29 carcinoma cells; experiment: Immunoblotting of caspase activation (procaspase-3, PARP); type: cell-based, Human; details: metformin 5 mM 48 hours, then TRAIL 1.5 μg/ml 16 hours
[16] = tested on: TRAIL-R1 mRNA in GILM2 cells; experiment: TRAIL receptor mRNA levels by real-time PCR; type: cell-based, Human; details: 5 mM metformin for 72 hours, normalized to control media
Method: GILM2 breast cancer cells were cultured in control media or media containing 5 mM metformin (MF) for 72 hours, and total RNA was then isolated. TRAIL-R2 and TRAIL-R1 mRNA levels were measured by real-time PCR and normalized to expression in GILM2 cells grown in control media.
To determine whether metformin sensitizes cancer cells to TRAIL by increasing the expression of its proapoptotic receptors (TRAIL-R1 and TRAIL-R2), GILM2 cells were treated with metformin for 72 hours, and then TRAIL receptor mRNA levels were measured by real-time PCR.

[17] = tested on: DU145 prostate carcinoma cells; experiment: MTS cell viability assay
Method: as §7, §6

[18] = metformin 5 mM 48 hours preincubation, then TRAIL 1.5 μg/ml 24 hours
[19] = metformin 5 mM 48 hours preincubation, then lexatumumab 1.5 μg/ml 24 hours
[20] = metformin 5 mM 48 hours preincubation, then mapatumumab 1.5 μg/ml 24 hours
[21] = metformin 5 mM or agonist 1.5 μg/ml alone

TRAIL: Soluble recombinant TRAIL corresponding to amino acids 95-281 of the protein, expressed in bacteria, His-tagged
lung metastases [1]: inhibited
mammary tumor growth [1]: inhibited

lexatumumab: fully human IgG1 agonistic monoclonal antibody that binds TRAIL-R2/DR5
sensitivity to apoptosis induction, compared with mapatumumab [2]: more sensitive
cytotoxicity of agent alone (cell confluence of surviving cells) (GILM2 cells): modest cell death

CN(C)C(=N)NC(=N)N [metformin, N,N-dimethylimidodicarbonimidic diamide]
TRAIL-induced proteolysis of the caspase substrate PARP [3]: increased
TRAIL-induced proteolytic activation of procaspase-3 [3]: augmented
lung metastases [1]: no significant effect
mammary tumor growth [1]: no significant effect
effect on cell viability, agent individually [4]: largely resistant
sensitivity to TRAIL (cell viability) [5, 18]: enhanced the sensitivity
sensitivity to lexatumumab (cell viability) [5, 19]: enhanced the sensitivity
sensitivity to mapatumumab (cell viability) [5, 20]: not
effect on cell viability, agent individually [5, 21]: only modest effects
TRAIL-induced proteolytic cleavage of PARP [6]: little effect
TRAIL-induced proteolytic cleavage of procaspase-3 [6]: little effect
sensitization to TRAIL (cell survival) ([7]; then TRAIL 1.5 μg/ml 24 hours): dramatically sensitized
sensitization to lexatumumab (cell survival) ([7]; then lexatumumab 1.5 μg/ml 24 hours): dramatically sensitized
effect on mapatumumab-induced cell death ([7]; then mapatumumab 1.5 μg/ml 24 hours): only a modest effect
effect of metformin alone on cell survival [8]: little effect
TRAIL-induced proteolysis of the caspase substrate PARP [9]: increased
TRAIL-induced proteolytic activation of procaspase-3 [9]: augmented
cytotoxicity of TRAIL (cell confluence of surviving cells) (HT29 cells; [18]): increased the cytoxicity
cytotoxicity of lexatumumab (cell confluence of surviving cells) (HT29 cells; [19]): increased the cytoxicity
cytotoxicity of mapatumumab (cell confluence of surviving cells) (HT29 cells; [20]): increased the cytoxicity; also recorded: more modest
cytotoxicity of agent alone (cell confluence of surviving cells) (HT29 cells; [21]): more robust cytotoxicity
cytotoxicity of TRAIL (cell confluence of surviving cells) (DU145 cells; metformin 5 mM 48 hours preincubation, then TRAIL 1.5 μg/ml 48 hours): increased the cytoxicity
cytotoxicity of lexatumumab (cell confluence of surviving cells) (DU145 cells; metformin 5 mM 48 hours preincubation, then lexatumumab 1.5 μg/ml 48 hours): increased the cytoxicity
cytotoxicity of mapatumumab (cell confluence of surviving cells) (DU145 cells; metformin 5 mM 48 hours preincubation, then mapatumumab 1.5 μg/ml 48 hours): increased the cytoxicity
cytotoxicity of agent alone (cell confluence of surviving cells) (DU145 cells; [21]): modest cytoxicity
TRAIL-induced proteolytic cleavage of PARP [10]: enhanced
TRAIL-induced proteolytic cleavage of procaspase-3 [10]: enhanced
XIAP protein levels [11]: reduction
XIAP protein levels [12]: reduction
sensitivity to TRAIL (cell viability) [13, 18]: enhanced the sensitivity
sensitivity to lexatumumab (cell viability) [13, 19]: enhanced the sensitivity
cytotoxicity of mapatumumab (cell viability) [13, 20]: did not augment the cytotoxicity
effect on cell viability, agent individually [13, 21]: modest or no significant effect
cell surface expression of TRAIL-R1 (TRAIL-R1 on GILM2 cells): did not significantly affect
XIAP protein levels [14]: reduction
sensitivity to TRAIL (cell viability) (HT29 colon cancer cells; [18]): enhanced the sensitivity
sensitivity to lexatumumab (cell viability) (HT29 colon cancer cells; [19]): enhanced the sensitivity
cytotoxicity of mapatumumab (cell viability) (HT29 colon cancer cells; [20]): did not augment the cytotoxicity
effect on cell viability, agent individually (HT29 colon cancer cells; [21]): modest or no significant effect
TRAIL-induced proteolysis of the caspase substrate PARP [15]: increased
TRAIL-induced proteolytic activation of procaspase-3 [15]: augmented
TRAIL-R1 mRNA levels [16]: modestly reduced
sensitivity to TRAIL (cell viability) [17, 18]: enhanced the sensitivity
sensitivity to lexatumumab (cell viability) [17, 19]: enhanced the sensitivity
cytotoxicity of mapatumumab (cell viability) [17, 20]: did not augment the cytotoxicity
effect on cell viability, agent individually [17, 21]: modest or no significant effect
cytotoxicity of TRAIL (cell confluence of surviving cells) (GILM2 cells; [18]): increased the cytoxicity
cytotoxicity of lexatumumab (cell confluence of surviving cells) (GILM2 cells; [19]): increased the cytoxicity
cytotoxicity of mapatumumab (cell confluence of surviving cells) (GILM2 cells; [20]): increased the cytoxicity; also recorded: more modest
cytotoxicity of agent alone (cell confluence of surviving cells) (GILM2 cells): modest cytoxicity
